Measurements taken from patent US20230331683A1, “INHIBITORS OF SPINSTER HOMOLOG 2 (SPNS2) FOR USE IN THERAPY” (University of Virginia Patent Foundation, priority 2020, published 2023).
Counter-ions that a name gives are not always drawn.

Biological target: mouse SPNS2 (Mus musculus (Mouse), UniProt Q91VM4)
Assay: S1P Transporter Assay (S1P release from whole cells expressing SPNS2)
Format: cell-based
Settings: in vitro inhibition against SPNS2; HeLa cells expressing mouse SPNS2, S1P release into media after 18 hours; compounds as their pharmaceutical salts
Experimental: Transporter assays are vectorial and therefore require measurement of the transported analyte in different compartments. The S1P transporter SPNS2 only exports S1P, which obviates measuring uptake of S1P into transporter-expressing cells. Thus, transporter activity was determined by quantifying S1P release from whole cells expressing SPNS2. SPNS2 inhibitor potency was assessed using whole cell assays. HeLa cells expressing mouse SPNS2 were used to determine inhibitor potency (IC50). Cells were plated onto 12 well plates and assayed when the cell monolayers became confluent. Cell growth media (RPMI-1640 containing 10% fetal bovine serum) was replaced with 2 mL of serum-free media (RPMI-1640) containing fatty acid free bovine serum albumin (BSA) (0.2 % w/v) and supplemented with 4-deoxypyridoxine (DOP) (1 mM), NaF (2 mM), Na3VO4 (0.2 mM) to inhibit S1P degradation. Test articles (1 × 10-9 - 1 × 10^-4 M) were assayed in duplicate or triplicate. After 18 hours, media was collected, an internal recovery standard (0.005 mL of 5 × 10^-7 M deuterated (d7) S 1P in methanol) was added, the BSA was precipitated with trichloroacetic acid and the bound S1P extracted with methanol. S1P and S1P-d7 were measured by liquid chromatography mass spectrometry. Inhibitor potency at the human SPNS2 ortholog was determined by an analogous assay using U-937 cells, which endogenously express human SPNS2.

Chain of mouse SPNS2 (Q91VM4 whole entry): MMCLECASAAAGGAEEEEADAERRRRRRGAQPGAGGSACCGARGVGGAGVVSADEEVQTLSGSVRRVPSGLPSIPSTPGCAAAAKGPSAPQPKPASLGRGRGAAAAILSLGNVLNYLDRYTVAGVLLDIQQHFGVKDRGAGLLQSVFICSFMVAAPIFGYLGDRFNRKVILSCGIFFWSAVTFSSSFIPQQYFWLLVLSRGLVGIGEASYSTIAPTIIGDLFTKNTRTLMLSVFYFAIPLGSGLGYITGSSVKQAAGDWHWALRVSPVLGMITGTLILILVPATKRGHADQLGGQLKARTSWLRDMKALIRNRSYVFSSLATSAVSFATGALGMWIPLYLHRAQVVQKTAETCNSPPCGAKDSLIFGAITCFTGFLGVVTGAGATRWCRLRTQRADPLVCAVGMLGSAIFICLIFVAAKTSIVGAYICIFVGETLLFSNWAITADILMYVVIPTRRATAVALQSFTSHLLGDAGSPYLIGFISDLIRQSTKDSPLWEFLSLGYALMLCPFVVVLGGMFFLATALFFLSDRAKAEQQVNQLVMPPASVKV

SMILES	IC50
CCCCCCCCCCc1ccc(NC(=O)CCCCCN)cc1 [Compound 2f, 6-amino-N-(4-decylphenyl)hexanamide Hydrochloride]	≤ 2000 nM
CCCCCCCCCCc1ccc2nc(CCN)oc2c1 [Compound 8d, 2-Decylbenzo[d]oxazol-2-yl)ethan-1-amine Hydrochloride]	> 2000 nM
CCCCCCCCCCc1ccc2oc(CCCCCN)nc2c1 [Compound 8c, 5-Decylbenzo[d]oxazol-2-yl)pentan-1-amine Hyrdrochloride]	> 2000 nM
CCCCCCCCCCc1ccc(NC(=O)[C@@H]2CCCNC2)cc1 [Compound 2a]	> 2000 nM
CCCCCCCCCCc1ccc2oc(NCC3CCNCC3)nc2c1 [Compound 36, 5-decyl-N-(piperidin-4-ylmethyl)benzo[d]oxazol-2-amine]	> 2000 nM
CCCCCCCCCCc1ccc2oc(CCN)nc2c1 [Compound 8a, 2-Decylbenzo[d]oxazol-2-yl)ethan-1-amine Hydrochloride]	> 2000 nM
CCCCCCCCc1ccc(NC(=O)CCCN)cc1 [Compound 2h, 4-amino-N-(4-octylphenyl)butanamide Hydrochloride]	> 2000 nM
CCCCCCCCCCc1ccc(NC(=O)CCN)cc1 [Compound 2d, 3-amino-N-(4-decylphenyl)propanamide Hydrochloride]	≤ 2000 nM
CCCCCCCCCCc1ccc(C(=O)NC2CCNCC2)cc1 [Compound 39, 4-decyl-N-(piperidin-4-yl)benzamide Hydrochloride]	≤ 2000 nM
CCCCCCCCCCc1ccc2nc(CCCN)[nH]c2c1 [Compound 31, 3-decyl-1H-benzo[d]imidazol-2-yl)propan-1-amine Hydrochloride]	> 2000 nM
CCCCCCCCCCc1ccc(NC(=O)[C@@H]2CCNC2)cc1 [Compound 2b]	> 2000 nM
CCCCCCCCCc1ccc(NC(=O)CCCN)cc1 [Compound 2g, 4-amino-N-(4-nonylphenyl)butanamide Hydrochloride]	> 2000 nM
CCCCCCCCCCc1ccc(NC(=O)CCCNC(=N)N)cc1 [Compound 4c, N-decylphenyl)-4-guanidinobutanamide Hydrochloride]	≤ 2000 nM
CCCCCCCCCCc1ccc(NC(=O)CCCN(C)C)cc1 [Compound 2p, 4-(dimethylamino)-N-(4-decylphenyl)butanamide Hydrochloride]	> 2000 nM
CCCCCCCCCCc1ccc(NC(=O)N[C@H]2CCNC2)cc1 [Compound 34, (S)(4-decylphenyl)-3-(pyrrolidin-3-yl)urea Hydrochloride]	≤ 2000 nM
CCCCCCCCCCc1ccc(NC(=O)CCCCN)cc1 [Compound 2e, 5-amino-N-(4-decylphenyl)pentanamide Hydrochloride]	> 2000 nM
CCCCCCCCCCc1ccc2oc(CCCN)nc2c1 [Compound 8b, 3-Decylbenzo[d]oxazol-2-yl)propan-1-amine Hydrochloride]	> 2000 nM
CCCCCCCCCCc1ccc(NC(=O)CCCN)c(F)c1 [Compound 2l, amino-N-decyl-2-fluorophenyl)butanamide Hydrochloride]	> 2000 nM
CCCCCCCCCOc1ccc(NC(=O)CCCN)cc1C(F)(F)F [Compound 2m, 4-amino-N-(4-(nonyloxy)-3-(trifluoromethyl)phenyl)butanamide hydrochloride]	> 2000 nM
CCCCCCCCCCc1ccc(NC(=O)CCCNC)cc1 [Compound 2n, N-decylphenyl)-4-(methylamino)butanamide Hydrochloride]	> 2000 nM
CCCCCCCCCCc1ccc(NC(=O)N2CCNCC2)cc1 [Compound 35, N-decylphenyl)piperazine-1-carboxamide Hydrochloride]	≤ 2000 nM

Other lines, results leading:

IC50	SMILES
> 2000 nM	CCCCCCCCCCc1cccc2nc(NCCN)oc12 [Compound 13u, N^1-decylbenzo[d]oxazol-2-yl)ethane-1,2-diamine hydrochloride]
≤ 2000 nM	CCCCCCCCCCc1ccc2oc(NC3CCNCC3)nc2c1 [Compound 13m, 5-decyl-N-(piperidin-4-yl)benzo[d]oxazol-2-amine Hydrochloride]
> 2000 nM	CCCCCCCCCCCc1ccc2oc(NCCN)nc2c1 [Compound 13d, N^1-undecylbenzo[d]oxazol-2-yl)ethane-1,2-diamine hydrochloride]
> 2000 nM	CCCCCCCCCCc1ccc2oc(NCCCCCN)nc2c1 [Compound 13h, N^1-decylbenzo[d]oxazol-2-yl)pentane-1,5-diamine hydrochloride]
> 2000 nM	CCCCCCCCCCc1ccc2oc(NCCCCN)nc2c1 [Compound 13g, N^1-decylbenzo[d]oxazol-2-yl)butane-1,4-diamine carbamate hydrochloride]
> 2000 nM	CCCCCCCCCCc1ccc2oc(NCCN)nc2c1 [Compound 13c, N^1-decylbenzo[d]oxazol-2-yl)ethane-1,2-diamine hydrochloride]
≤ 2000 nM	CCCCCCCCCCc1ccc(C(=O)N2CCNCC2)cc1 [Compound 26c, Decylphenyl)(piperazin-1-yl)methanone Hydrochloride]
≤ 2000 nM	CCCCCCCCCCc1ccc2nc(N(CCN)CCN)oc2c1 [Compound 13y, N1-aminoethyl)-N1-(6-decylbenzo[d]oxazol-2-yl)ethane-1,2-diamine dihydrochloride]
> 2000 nM	CCCCCCCCCc1ccc2oc(NCCN)nc2c1 [Compound 13b, N^1-nonylbenzo[d]oxazol-2-yl)ethane-1,2-diamine hydrochloride]
≤ 2000 nM	CCCCCCCCCCc1ccc(NC(=O)NCCCN)cc1 [Compound 20b, 1-Aminopropyl)-3-(4-decylphenyl)urea Hydrochloride]
> 2000 nM	CCCCCCCCCCc1ccc2nc(N3CC[C@H](N)C3)oc2c1 [Compound 13z, (S)(6-decylbenzo[d]oxazol-2-yl)pyrrolidin-3-amine Hydrochloride]
≤ 2000 nM	CCCCCCCCCCc1ccc2oc(N[C@@H]3CNC[C@@H]3F)nc2c1 [Compound 13l, 5-decyl-N-((3R,4S)-4-fluoropyrrolidin-3-yl)benzo[d]oxazol-2-amine hydrochloride]
> 2000 nM	CCCCCCCCCCc1ccc(NC(=O)O[C@H]2CCNC2)cc1 [Compound 23b, (S)-pyrrolidin-3-yl (4-decylphenyl)carbamate Hydrochloride]
> 2000 nM	CCCCCCCCCCc1ccc(NC(=O)OCCN)cc1 [Compound 23a, 2-Aminoethyl (4-decylphenyl)carbamate Hydrochloride]
≤ 2000 nM	CCCCCCCCCCc1ccc(NC(=O)N2CCC(N)CC2)cc1 [Compound 20a, 4-amino-N-(4-decylphenyl)piperidine-1-carboxamide Hydrochloride]
> 2000 nM	CCCCCCCCCCc1ccc2oc(N3CC[C@H](N)C3)nc2c1 [Compound 13n, (S)(5-decylbenzo[d]oxazol-2-yl)pyrrolidin-3-amine Hydrochloride]
> 2000 nM	CCCCCCCCCCc1ccc2oc(N3CCNCC3)nc2c1 [Compound 13p, 5-Decyl(piperazin-1-yl)benzo[d]oxazole Hydrochloride]
> 2000 nM	CCCCCCCCCCc1ccc2nc(NCCN)oc2c1 [Compound 13q, N^1-decylbenzo[d]oxazol-2-yl)ethane-1,2-diamine hydrochloride]
> 2000 nM	CCCCCCCCCCc1ccc2nc(N3CC[C@@H](N)C3)oc2c1 [Compound 13aa, (R)(6-decylbenzo[d]oxazol-2-yl)pyrrolidin-3-amine Hydrochloride]
≤ 2000 nM	CCCCCCCCCCc1ccc(NC(=O)O[C@@H]2CCNC2)cc1 [Compound 23c, (R)-pyrrolidin-3-yl (4-decylphenyl)carbamate Hydrochloride]
> 2000 nM	CCCCCCCCCCc1ccc2nc(NCCCN)oc2c1 [Compound 13r, N^1-decylbenzo[d]oxazol-2-yl)propane-1,3-diamine hydrochloride]
> 2000 nM	CCCCCCCCCCc1ccc2oc(NCCCN)nc2c1 [Compound 13f, hydrochloride]
> 2000 nM	CCCCCCCCCCc1ccc2oc(NC3CNC3)nc2c1 [Compound 13i, N-(azetidin-3-yl)-5-decylbenzo[d]oxazol-2-amine 2,2,2-trifluoroacetate]
> 2000 nM	CCCCCCCCCCc1ccc2oc(N3CC[C@@H](N)C3)nc2c1 [Compound 13o, (R)(5-decylbenzo[d]oxazol-2-yl)pyrrolidin-3-amine Hydrochloride]
> 2000 nM	CCCCCCCCCCc1ccc2nc(NCCN)sc2c1 [Compound 17a, N^1-decylbenzo[d]thiazol-2-yl)ethane-1,2-diamine hydrochloride]
> 2000 nM	CCCCCCCCCCCCc1ccc2oc(NCCN)nc2c1 [Compound 13e, N^1-dodecylbenzo[d]oxazol-2-yl)ethane-1,2-diamine hydrochloride]
> 2000 nM	CCCCCCCCCCc1cccc2oc(NCCN)nc12 [Compound 13w, N^1-decylbenzo[d]oxazol-2-yl)ethane-1,2-diamine hydrochloride]
> 2000 nM	CCCCCCCCCCc1ccc2nc(NCCCN)sc2c1 [Compound 17b, N^1-decylbenzo[d]thiazol-2-yl)propane-1,3-diamine hydrochloride]
≤ 2000 nM	CCCCCCCCCCc1ccc(C(=O)NCCCN)cc1 [Compound 26d, N-aminopropyl)-4-decylbenzamide Hydrochloride]
> 2000 nM	CCCCCCCCc1ccc2oc(NCCN)nc2c1 [Compound 13a, N^1-octylbenzo[d]oxazol-2-yl)ethane-1,2-diamine hydrochloride]
